Assay results from patent US10556926B2, “Synthetic artificial peptides with antimicrobial effect” (priority 2014, dated 2020).
No end group written: not given here.

Key:
Staphylococcus xylosus = settings: 18 h
Method: (§1) The minimum inhibitory concentration (MIC) of the peptides was carried out by way of example against gram(−) E. coli DH5α (and gram(+) Staphylococcus xylosus (both Deutsche Sammlung von Mikroorganismen and Zellkulturen, DSMZ) in a standardized microdilution method according to the general guidelines of the CLSI (Clinical and Laboratory Standards Institute 2006) and EUCAST (European Committee for Antimicrobial Susceptibility Testing of the European Society of Clinical Microbiology and Infectious Diseases 2003) with slight adaptations to the investigation of cationic antimicrobial peptides (Wiegand et al. 2008). The bacteria cells were cultivated in Mueller-Hinton-Boullion (MHB) to an optical density of 0.4 to 0.6 at 600 nm wavelength, corresponding to about 4·10^8 bacteria per ml. Then, the bacteria cultures were diluted to a bacteria concentration of about 1·10^5 bacteria per ml in sterile MHB. Using the peptides, series of 2-fold dilutions starting at 128 μM to the smallest dilution of 0.5 μM in MHB were prepared. The peptide dilutions were mixed with the dilute bacteria cultures in a […] in the chambers of a 96-well polypropylene microtiter plate (Starlab, Hamburg, Germany), so that the peptides were present in an end concentration between 64 μM and 0.25 μM at a bacteria concentration of 5·10^4 bacteria/ml. Sterile MHB served as negative control, and the positive control used as the corresponding bacteria concentration in MHB without the addition of peptide. The microtiter plates were incubated for 18 hours at 37° C. with shaking at 120 rpm in a climatically controlled chamber. After the incubation, the bacteria concentration was determined by renewed absorption measurement at a wavelength of 600 nm.

E. coli DH5α = settings: DH5α, 18 h
Method: as §1

[1] = system: human histiocytic lymphoma cell line U937; assay: Long-term growth inhibition, minimum toxic concentration (MTC)
Method: The cytotoxic potential of the antimicrobial peptides was determined by way of example by reference to the human histiocytic lymphoma cell line U937 (DSMZ). The influence of the peptides on the permeability of the cell membrane and their longer-term growth-inhibiting effect was investigated. 15 ml of RPMI 1640 medium with 2 mM glutamine and 10% FCS (Biochrom, Berlin, Germany) were inoculated with 1·10^5 cells per ml and cultivated for three days at 37° in T75 cell culture bottles (TPP, Trasadingen, Switzerland) with constant gassing with 5% CO2 in a climatically controlled chamber. The medium was admixed with 10 U/ml penicillin and […] streptomycin (both AppliChem, Darmstadt, Germany) to avoid bacterial contaminations, with no further antibiotics being added during the subsequent recultivation. Before each experiment, the cells were washed by centrifugation at 100 g for five minutes and subsequent resuspension in RPMI 1640 medium with 2 mM glutamine and 10% FCS in each case two times and adjusted to a concentration of 1·10^5 cells per ml. Finally, in each case 100 μl of the U937 cells were transferred to the reaction chambers of a sterile 96-well polypropylene microtiter plate and admixed with in each case 100 μl of a prediluted antimicrobial peptide in RPMI 1640 medium without antibiotic addition, such that end concentrations of in each case 5·10^4 cells per ml at peptide concentrations between 0.25 μM and 64 μM were present. The negative control used was samples without antimicrobial peptide, while Triton X-100 (AppliChem) was used in an end concentration of 5% as positive control for the permeabilization. The samples were cultivated for two hours at 37° C. and with continuous gassing with 5% CO2 in a climatically controlled chamber. Then, in each case 100 μl of each sample were removed and transferred to new sterile microtiter plates for determining the direct membrane damage. The remaining 100 μl of the samples were cultivated for at least four further days.
For this purpose, 10 μl of lysing solution were added to in each case 100 μl of cell suspension and incubated for 60 minutes at 37° C. Then, the cell culture supernatants were investigated as described above. The lowest peptide concentration at which complete suppression of the cell growth was established after four days was stipulated as the minimum toxic concentration (MTC).

[2] = system: human histiocytic lymphoma cell line U937; assay: Cytotoxicity, direct membrane damage (CytoTox 96), LD50; format: cell-based; settings: U937, two hours at 37° C., 0.25-64 μM
Method: The direct membrane damage was investigated with the help of the CytoTox 96 Non-Radioactive Cytotoxicity Assay (Promega, Mannheim, Germany). For this purpose, the cells were sedimented at 100 g for ten minutes at 4° C., and 50 μl of the resulting culture supernatant were added to 50 μl of the CytoTox substrate mix. After an incubation time of 30 minutes in the dark at room temperature, 50 μl of the CytoTox stopping solution were added to the sample and the absorption was measured at 490 nm. To determine the LD50 value, the measurement value of the negative control was deducted from the absorption values and divided by the measurement value of the permeabilization control. The calculated values were plotted graphically against the peptide concentration and fitted using the Origin pro 8.1 G Software according to a sigmoidal model and the LD50 values were ascertained from this. The calculation was carried out analogously to example 5 by reference to the solution of equation 5.1 for the case y=50, where y in this case corresponds to the relative cytotoxicity in percent and x corresponds to the peptide concentration in μM. Representative graphical evaluations of LD50 values are shown in FIG. 6 by reference to the measurement results for the reference peptides BMAP-27, protamine and KL-helix, and also the peptide O1 according to the invention.

Row | Substance | MIC S. xylosus (Staphylococcus xylosus) [µM] | MIC E. coli (E. coli DH5α) [µM] | Toxicity MTC (minimum toxic concentration) [1] [µM] | Toxicity LD50 [2] [µM]
1 | KRKILILIKRK [M1] | 2 | 8 | >64 | >64
2 | KKKKKIIIIIKKKKD [D4] | 16 | 32 | >64 | >64
3 | KRKILILILIL [M2] | >64 | >64 | >64 | >64
4 | LKLLKKLLKKLLKLL [KL-helix] | 2 | 4 | 8.0 | 
5 | KKKKKIIIIIKDDDD [D2] | >64 | >64 | >64 | >64
6 | KKKKKIIIIIDDDDK [D8] | >64 | >64 | >64 | >64
7 | KRKIL [C8, KRKIL] | >64 | >64 | >64 | >64
8 | RKRKLILILIKRKR [A1] | 0.5 | 8 | >64 | >64
9 | KKKKKIIIIIKKKDD [D3] | 32 | >64 | >64 | >64
10 | KKKKKIIIIIDKKKK [D6] | 16 | 32 | >64 | >64
11 | GSGILILIKRK [M5] | >64 | >64 | >64 | >64
12 | RRRVVVVVRRR [S5] | 2 | 32 | >64 | >64
13 | KRKILILIKR [C3] | 8 | 16 | >64 | >64
14 | LILIKRK [N6, LILIKRK] | >64 | >64 | >64 | >64
15 | KRKILILIK [C4] | 8 | 32 | >64 | >64
16 | KLILKRKRKRILIK [A4] | 16 | 32 | >64 | >64
17 | RRRLLLLLRRR [S3] | 1 | 8 |  | >64
18 | KKKIIIIIKKK [S2] | 0.5 | 8 |  | >64
19 | KKKVVVVVKKK [S6] | 8 | 64 |  | >64
20 | RRRIIIIIRRR [S1] | 2 | 8 |  | >64
21 | KKKFFFFFKKK [S8] | 4 | 16 |  | >64
